The text below walks through data of patent US20240325330A1, “NEW METHOD TO TREAT ACIDOSIS RELATED DISEASES WITH ACETOACETATE” (INSTITUT NATIONAL DE LA SANTÉ ET DE LA RECHERCHE MÉDICALE, priority 2021, published 2024).

Experiment [1] deals with human monocytes differentiated into macrophages under lactic acidosis (LA-Mφ). In words: Autophagy assessed by TEM or molecularly (LC3, p62 western blot, mRNA). To be noted: day 3 LA-Mφ+AcAc relative to Mφ; data not shown. It counts as cell-based. An excerpt: Peripheral blood mononuclear cells (PBMC) were obtained from healthy human volunteers (Blood collection center, Angers, France; agreement ANG-2017-01) by standard density-gradient centrifugation on lymphocyte separation medium (Eurobio, Courtaboeuf, France). CD14+ monocytes were then isolated by positive magnetic cell-sorting (Miltenyi Biotec, Bergisch Gladbach, Germany). […]
Cells were lysed in Trizol reagent (Life Technologies, Thermo Fisher Scientific), and total RNA was extracted with the RNeasy Micro kit (Qiagen, Hilden, Germany) and then reverse-transcribed with the Superscript II reverse transcriptase (Life Technologies). Levels of mRNA encoding the indicated proteins were then analyzed by subjecting the cDNA obtained by reverse transcription to qPCR. Relative quantification was performed by the 2^−ΔΔCT method, with RPS18, EF1A, TBP, RPL13A and PPIA as references. Results are expressed as relative mRNA levels.
Levels of LC3-I, LC3-II, p62, β-actin, AMPKα and pAMPKα were evaluated by western blotting. […] Protein loading was assessed by probing the membrane with a rabbit anti-β-actin antibody (Abcam, Cambridge, UK). Bound antibodies were detected by incubation with 1 μg/mL peroxidase-conjugated anti-rabbit or anti-mouse IgG antibody (Life Technologies) or with an anti-AMPK Ab, with the SuperSignal West Femto system (Thermo Fisher Scientific). […]

For experiment [2], the system named is PBMC from septic shock patients. Kind of experiment: Mitochondrial depolarization in cultured PBMC from sepsis patients. To be noted: 24 h, medium with 5 mM AcAc, FIG. 4B. Format: cell-based, human. As to the method:
Mitochondrial membrane potential was assessed by incubating with 10 nM MitoTracker Green and 5 nM MitoTracker DeepRed (Thermo Fisher Scientific, Waltham, MA) in PBS containing 1% (w/v) BSA in PBS (PBS/BSA) at 37° C. for 15 min. Cells were washed and incubated with 0.5 μg/mL DAPI to exclude dead cells. Flow cytometry data were acquired with a FACSCanto II flow cytometer (BD Biosciences, San Jose, CA) and analyzed with FlowJo software (Tree Star, Ashland, OR).
Peripheral blood mononuclear cells (PBMC) from septic patients and healthy subjects were purified by standard density-gradient centrifugation on lymphocyte separation medium (Eurobio, Courtaboeuf, France). PBMC were cultured for 24 h in a medium consisting of RPMI 1640 medium with L-glutamine and without glucose (Lonza, Verviers, Belgium) and supplemented with 6% FCS (Eurobio), 3% autologous plasma, 0.5 g/L glucose, 100 U/mL penicillin and 100 μg/mL streptomycin (all from Lonza) in the presence of 2 ng/mL GM-CSF (R&D Systems). In some experiments, the culture medium was supplemented with 5 mM AcAc or adjusted to 4 g/L glucose. After 24 h culture, the percentage of cells with depolarized mitochondria was assessed as described above. After 3 days of culture, intracellular ATP has been quantified as described above.

The next experiment deals with U937 cell line. To be noted: cited from earlier work.
Experiment [3] has as its system human monocyte-derived macrophages (Mφ, LA-Mφ). In words: Cytokine secretion after LPS stimulation (ELISA). It counts as cell-based. To be noted: day 5, LPS 16 h, FIG. 3. On the procedure:
Peripheral blood mononuclear cells (PBMC) were obtained from healthy human volunteers (Blood collection center, Angers, France; agreement ANG-2017-01) by standard density-gradient centrifugation on lymphocyte separation medium (Eurobio, Courtaboeuf, France). CD14+ monocytes were then isolated by positive magnetic cell-sorting (Miltenyi Biotec, Bergisch Gladbach, Germany). Monocytes (1×10^6 cells/mL) were cultured in complete medium (CM) consisting of RPMI 1640 (Lonza, Verviers, Belgium) supplemented with 10% fetal calf serum (FCS) (Eurobio), 2 mM L-glutamine, 1 mM sodium pyruvate, 0.1 mM non-essential amino acids, 10 mM HEPES, 100 U/mL penicillin and 100 μg/mL streptomycin (all from Lonza) in the presence of 50 ng/mL GM-CSF (R&D Systems, Minneapolis, MN).
Experiments were performed in the presence of 10 mM lactic acid (Sigma-Aldrich, St Louis, MO) resulting in a pHe of 6.5 to generate LA-Mφ (lactic acidosis conditioning), 12.35 mM HCl to reach a final pHe of 6.5 and to generate HCl-Mφ(acidosis conditioning), 10 mM sodium lactate (Sigma-Aldrich) to generate lactate-Mφ (lactosis conditioning, pH 7.3), in the absence or presence of 5 mM lithium acetoacetate (AcAc) (Sigma-Aldrich, St Louis, MO).
Day 5 GM-Mϕ, GM+LA-Mϕ and GM+LA-Mϕ+AcAc were stimulated with 200 ng/mL LPS (Sigma-Aldrich). Cytokines were quantified by ELISA (R&D Systems) in the supernatants collected at 16 h.

For the molecule `CC(=O)CC(=O)[O-].[Li+]` [AcAc, lithium acetoacetate], the autophagy entry in experiment [1] was “not upregulated”. Moreover, in experiment [2], the “percentage of cells with depolarized mitochondria” value is reported as “significantly reduced”. Also, the “IL-6 and TNF production” value in the experiment with U937 cell line was “enhance IL-6 and TNF production”. The “combined effect of AcAc and lactic acid on capacity to produce inflammatory cytokines and trophic factors” value in experiment [3] (LA-Mφ+AcAc) was “acted synergistically”. Further, the “cytokine phenotype of monocytes differentiated in the presence of AcAc” value in experiment [3] (ELISA) was “TNFαhigh IL-1βhigh IL-6high OSMhigh and VEGFhigh phenotype”.
